“Also recorded” adds a separate entry of the source. No end group written: not given here.
Legend:
flp-3 lof males [1] = assay: Drop avoidance assay to ascr #8 after FLP-3 peptide rescue-by-feeding; assay type: in vivo, C. elegans; settings: flp-3 lof males raised on peptide; 1 μM ascr #8; in words
Experimental: To identify which FLP-3 peptides are required for male avoidance of ascr #8, a peptide feeding approach https://www.nature.com/articles/s42003-021-02547-7-ref-CR59 was adopted, similar to RNAi feeding (FIG. 16A). Using Gateway Cloning technology, FLP-3 peptide coding sequences were inserted into a bacterial expression vector. As a control, first the FLP-3 peptides were tested that are still encoded in the ok3625 allele which are insufficient to drive the proper ascr #8 response in vivo: FLP-3-1 (SPLGTMRFamide) (SEQ ID NO: 10) and FLP-3-4 (NPLGTMRFamide) (SEQ ID NO: 11). Then flp-3 lof animals were reared on lawns of bacteria expressing the rescue constructs, and their progeny were assayed for avoidance (FIG. 16B-FIG. 16D).
Assays were performed as described previously in Chute, C. D. & Srinivasan, J. Semin. Cell Dev. Biol. 33, 18-24 (2014); Chute, C. D. et al. Nat. Commun. 10, 3186 (2019); and Hilliard, M. A. et al., EMBO J. 23, 1101-1111 (2004). Fifty to sixty L4 worms were segregated by sex and stored at 20° C. for 5 h to overnight to be assayed as young adults. One to four hours prior to the assay, the lids of unseeded plates were tilted to allow any excess moisture to evaporate off the plates. At the time of the assay, 10 or more animals were transferred onto each of the dried, unseeded plates. A drop of either water or 1 μM ascr #8 was placed on the tail of forward moving animals, and their response was scored as either an avoidance response, or no response. The total number of avoidances was divided by the total number of drops to generate an avoidance index for that plate. This was repeated for at least 10 plates over at least three different days.
SCRAMBLE control or FLP-3 peptide constructs were grown overnight in LB media containing […] ampicillin at 37° C. and diluted to an OD600 of 1.0 prior to seeding on NGM plates containing […] ampicillin and 1 mM IPTG. The 75 μL lawn was left to dry and grow overnight at room temperature before three L4 animals were placed on the plates. Males were selected for testing in the same manner as described above but were isolated onto plates also seeded with the same peptide on which they had been reared. Animals were then assayed using either the avoidance assay or single worm assay.

NPR-10B = target: T1, NPR-10B (Caenorhabditis elegans, UniProt Q6EUU1); assay: In vitro GPCR activation assay (CHO-K1 cells, aequorin, human Gα16), NPR-10B; assay type: cell-based, C. elegans; settings: title: NPR-10B; calcium/aequorin luminescence in transfected CHO-K1 cells
T1 sequence (Q6EUU1 1-362): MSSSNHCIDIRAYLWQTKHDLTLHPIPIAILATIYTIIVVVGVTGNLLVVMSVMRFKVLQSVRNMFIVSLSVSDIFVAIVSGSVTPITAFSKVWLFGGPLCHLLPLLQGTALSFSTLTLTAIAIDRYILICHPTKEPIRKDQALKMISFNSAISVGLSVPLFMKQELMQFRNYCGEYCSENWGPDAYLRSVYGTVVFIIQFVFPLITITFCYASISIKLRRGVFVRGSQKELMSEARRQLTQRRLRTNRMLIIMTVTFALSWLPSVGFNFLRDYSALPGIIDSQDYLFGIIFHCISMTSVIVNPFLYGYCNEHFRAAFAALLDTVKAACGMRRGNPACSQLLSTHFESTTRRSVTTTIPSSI
Experimental: Using Chinese hamster ovarian (CHO) cell cultures stably expressing the promiscuous G protein, Gα16, and the calcium reporter, aequorin, it was observed that both isoforms of NPR-10 are activated by seven of the ten FLP-3 peptides, with half-maximal effective concentrations (EC50) in the nM range (FIG. 14A-FIG. 14H, Table V). […] This peptide contains an R-to-K mutation within the C-terminal motif, which may explain the lack of receptor activation.
(§1) The GPCR activation assay was performed as previously described Van Sinay, E. et al. Proc. Natl Acad. Sci. USA 114, E4065-e4074 (2017) and Peymen, K. et al. PLoS Genet. 15, e1007945 (2019). Briefly, npr-10 and frpr-16 cDNAs were cloned into the pcDNA3.1 TOPO expression vector (Thermo Fisher Scientific). A CHO-K1 cell line (PerkinElmer, ES-000-A24) stably expressing apo-aequorin targeted to the mitochondria (mtAEQ) and human Gα16 was transiently transfected with the receptor cDNA construct or the empty pcDNA3.1 vector using Lipofectamine LTX and Plus reagent (Thermo Fisher Scientific). Cells were shifted to 28° C. one day later and allowed to incubate for 24 h. On the day of the assay, cells were collected in BSA medium (DMEM/Ham's F12 with 15 mM HEPES, without phenol red, 0.1% BSA) and loaded with […] coelenterazine h (Thermo Fisher Scientific) for 4 h at room temperature. The incubated cells were then added to synthetic peptides dissolved in DMEM/BSA, and luminescence was measured for 30 s at […] using a Mithras LB940 (Berthold Technologies) or MicroBeta LumiJet luminometer (PerkinElmer). After 30 s of readout, 0.1% triton X-100 was added to lyse the cells, resulting in a maximal calcium response that was measured for 10 s. After initial screening, concentration-response curves were constructed for HPLC-purified FLP-3 peptides by subjecting the transfected cells to each peptide in a concentration range from 1 pM to 10 μM. Cells transfected with an empty vector were used as a negative control. Assays were performed in triplicate on at least two independent days. Concentration-response curves were fitted using Prism v. 7 (nonlinear regression analysis with a sigmoidal concentration-response equation).

flp-3 lof males [2] = assay: Single worm attraction assay (SWAA) to ascr #8 after FLP-3 peptide rescue-by-feeding; assay type: in vivo, C. elegans; settings: flp-3 lof males raised on peptide; in words
Experimental: The outer forty wells of a 48-well suspension culture plate (Olympus Plastics, Cat #: 25-103) were seeded with 200 μL of standard NGM agar. To prepare the plates for the assay, they were acclimated to room temperature, at which point each well was seeded with 65 μL of OP50 E. coli. The assay plates were then transferred to a 37° C. incubator with the lid tilted for 4 h to allow the bacterial culture to dry on the agar. Once the bacterial culture dried, the lid was replaced the plate was stored at 20° C. until used in the assay. Fifty to sixty L4 worms were segregated by sex and stored at 20° C. for 5 h to overnight to be assayed as young adults. 0.8 μL of either vehicle control or ascaroside #8 was placed in the center of the well corresponding to that condition within the quadrant being tested, following a random block design (FIG. 11A). A single worm was placed in each of the 10 wells to be assayed, and the plate was transferred to a light source and camera and recorded for 15 m. This process was repeated for all four quadrants. Each strain and sex were assayed over five plates assayed on at least three different days. Raw dwell time values were calculated by subtracting the time a worm exited the cue (center of the well in spatial controls), from the time it entered, as in the SRA. This was determined per visit, and the average dwell time was calculated for each animal in the quadrant. Averages of the four-quadrant means were determined per plate, and a minimum of five plates were assayed per strain/condition. The mean raw dwell time across five plates was calculated and used for statistical analyses and graphical display. The average dwell time in the ascaroside was divided by the average dwell time within the vehicle control per plate to generate a fold-change. To transform the data, the log of this fold-change was taken, and the average log(fold-change) was used for statistical analyses and graphical display. […]

FRPR-16 = target: T2, FRPR-16 (Caenorhabditis elegans, UniProt Q21957); assay: In vitro GPCR activation assay (CHO-K1 cells, aequorin, human Gα16), FRPR-16; assay type: cell-based, C. elegans; settings: calcium/aequorin luminescence in transfected CHO-K1 cells
T2 sequence (Q21957 1-340): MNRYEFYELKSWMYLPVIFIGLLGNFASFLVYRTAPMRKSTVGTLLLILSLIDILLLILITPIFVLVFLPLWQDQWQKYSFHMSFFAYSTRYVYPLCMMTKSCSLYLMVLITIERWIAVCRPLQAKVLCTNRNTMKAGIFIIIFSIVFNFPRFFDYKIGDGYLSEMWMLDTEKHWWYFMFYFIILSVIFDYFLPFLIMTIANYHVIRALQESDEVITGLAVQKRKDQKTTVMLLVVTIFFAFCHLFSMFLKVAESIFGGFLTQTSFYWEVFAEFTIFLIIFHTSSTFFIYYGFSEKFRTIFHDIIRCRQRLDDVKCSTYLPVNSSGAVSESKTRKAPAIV
Experimental: as §1

ins-6 lof worms = assay: NaCl chemotaxis assay after rescue-by-feeding; assay type: in vivo, C. elegans; settings: 750 mM NaCl, in words
Experimental: All animals were maintained on bacterial lawns of OP50 E. coli, at 20° C., on NGM agar plates until the start of experiments. Mutant or control animals were transferred onto lawns of DH5α E. coli expressing either scramble peptide or the rescue peptide-of-interest on NGM plates containing […] AMP and 1 mM IPTG. Animals were reared on the peptide-expressing lawns for at least 48 hours at 20° C. before assaying for rescue of mutant phenotype at the appropriate developmental stage.
A salt chemotaxis assay was performed as previously described in Leinwand, S. G. & Chalasani, S. H. Nature neuroscience 16, 1461-1467 (2013); Bargmann, C. I. & Horvitz, H. R. Neuron 7, 729-742 (1991) to test the functionality of ins-6 after rescue-by-feeding. Wild-type (N2) and ins-6 worms were fed either scramble or INS-6 peptide passing 4-6 L4 larval onto an NGM plate containing […] AMP and 1 mM IPTG with 75 μL of peptide OD600=1.0. These worms were grown at 20° C. for about 4 days until the progeny of the initial L4 worms were young adults.
The day prior to testing, a thin, 10 mL layer of agar was added to 10 cm petri dishes to generate a 10 cm Chemotaxis Plates (5 mM KPO4 (pH 6.0), 1 μM MgSO4, 1 μM CaCl2), 20 g/L agar, and 8 g/L Difco Nutrient Broth). To prepare the “high salt” plates, 750 mM NaCl was added prior to plate pouring. The high salt plate were stored at 4° C. for up to one month, while the Chemotaxis Plates were made one day prior to testing. To create the high and low salt plugs, the back end of a Pasteur pipette was used to punch a 5 mm plug out of each plate. These 2 plugs were placed on opposite edges of the plate. A 10 mm radius was be drawn around the location of the plugs (FIG. 1). Plates were stored, lightly covered, overnight at room temperature (˜20° C., <40% humidity). […]
Young adult hermaphrodites are tested in the Chemotaxis Assay with no more than three replicates per day, over a minimum of three days, with 100-200 worms/assay plate. The […] Chemotaxis Index (CI) was calculated as follows: […]

Row | Substance | rescue of avoidance phenotype to ascr #8 (Avoidance Index) (flp-3 lof males [1]) | EC50 (NPR-10B) [nM] | rescue of attraction to ascr #8 (dwell time, log(fold-change)) (flp-3 lof males [2]) | EC50 (FRPR-16) [nM] | rescue of NaCl chemotaxis (ins-6 lof worms; ins-6 lof worms fed peptide) | chemotaxis on overexpression by feeding (ins-6 lof worms; wild-type animals fed INS-6)
1 | TPLGTMRF-NH2 [FLP-3-2, TPLGTMRFamide] | able to abolish the avoidance phenotype; also recorded: undo the Avoidance phenotype associated with the flp-3 mutation | 366 | not able to restore the animal's ability to be attracted to ascr #8; also recorded: seems to make the animals less attracted to the cue | 31.7 |  | 
2 | VPAPGETRACGRKLISLVMAVCGDLCNPQEGKDIATECCGNQCSDDYIRSACCP-NH2 (cysteine pairing not given here) [INS-6] |  |  |  |  | complete rescue of NaCl chemotaxis; also recorded: restores the Chemotaxis Index at a level similar to the canonical transgenic rescue; also recorded: complete restoration of attraction to high salt concentration | does not result in changes in attraction towards 750 mM NaCl; also recorded: does not affect chemotaxis in wild type animals; also recorded: slight defects in CI towards high salt
3 | NPENDTPFGTMRF-NH2 [FLP-3-9, NPENDTPFGTMRFamide] | lack of avoidance to ascr #8; also recorded: undo the Avoidance phenotype associated with the flp-3 mutation | 760 | full rescue of their ability to be attracted to the cue; also recorded: restores the attraction to wild-type | 88.3 |  | 

Source: patent publication US20220380430A1, “Non-Transgenic Functional Rescue of Neuropeptides” (Worcester Polytechnic Institute, priority 2021, published 2022)
